From PubChem BioAssay (NCI)
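Assay format: 96-well plates, 48-hour exposure. At the GI50, growth is halved. TGI denotes the concentration required for complete inhibition of growth.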

What was measured:
Test in all cases: DTP human tumour cell line panel, 48 h
HCT-15 colon = test system: HCT-15 colon
U251 CNS = test system: U251 CNS
EKVX NSCLC = test system: EKVX NSCLC
SW-620 colon = test system: SW-620 colon
UACC-62 melanoma = test system: UACC-62 melanoma
SR leukemia = test system: SR leukemia
SF-268 CNS = test system: SF-268 CNS
A549 NSCLC = test system: A549 NSCLC
MDA-MB-435 = test system: MDA-MB-435
SK-OV-3 ovarian = test system: SK-OV-3 ovarian
M14 melanoma = test system: M14 melanoma
HL-60(TB) leukemia = test system: HL-60(TB) leukemia
SK-MEL-28 melanoma = test system: SK-MEL-28 melanoma
RPMI-8226 leukemia = test system: RPMI-8226 leukemia
OVCAR-8 ovarian = test system: OVCAR-8 ovarian
786-0 renal = test system: 786-0 renal
A498 renal = test system: A498 renal
HOP-92 NSCLC = test system: HOP-92 NSCLC
HCT-116 colon = test system: HCT-116 colon
SF-539 CNS = test system: SF-539 CNS
NCI/ADR-RES ovarian = test system: NCI/ADR-RES ovarian
SN12C renal = test system: SN12C renal
UO-31 renal = test system: UO-31 renal
MCF7 breast = test system: MCF7 breast
PC-3 prostate = test system: PC-3 prostate
UACC-257 melanoma = test system: UACC-257 melanoma
KM12 colon = test system: KM12 colon
ACHN renal = test system: ACHN renal
LOX IMVI melanoma = test system: LOX IMVI melanoma
COLO 205 colon = test system: COLO 205 colon
OVCAR-4 ovarian = test system: OVCAR-4 ovarian
SNB-19 CNS = test system: SNB-19 CNS
CAKI-1 renal = test system: CAKI-1 renal
HS 578T breast = test system: HS 578T breast
SF-295 CNS = test system: SF-295 CNS
TK-10 renal = test system: TK-10 renal
T-47D breast = test system: T-47D breast
OVCAR-5 ovarian = test system: OVCAR-5 ovarian
MDA-MB-231 breast = test system: MDA-MB-231 breast
SK-MEL-2 melanoma = test system: SK-MEL-2 melanoma
NCI-H23 lung = test system: NCI-H23 lung
K-562 leukemia = test system: K-562 leukemia
MALME-3M melanoma = test system: MALME-3M melanoma
HT29 colon = test system: HT29 colon
SNB-75 CNS = test system: SNB-75 CNS
NCI-H522 lung = test system: NCI-H522 lung
SK-MEL-5 melanoma = test system: SK-MEL-5 melanoma
IGROV1 ovarian = test system: IGROV1 ovarian
NCI-H226 lung = test system: NCI-H226 lung
NCI-H460 lung = test system: NCI-H460 lung
HCC-2998 colon = test system: HCC-2998 colon
DU-145 prostate = test system: DU-145 prostate
RXF 393 renal = test system: RXF 393 renal
MOLT-4 leukemia = test system: MOLT-4 leukemia
HOP-62 NSCLC = test system: HOP-62 NSCLC
BT-549 breast = test system: BT-549 breast
CCRF-CEM leukemia = test system: CCRF-CEM leukemia

In the case of CNC(=O)c1cc(Oc2ccc3c(c2)sc2nc(-c4ccc(N(C)C)cc4)cn23)ccn1, the GI50 (HCT-15 colon) is reported as 202 nM, the TGI (HCT-15 colon) is reported as greater than 50000 nM and the GI50 (U251 CNS) is reported as 210 nM. The TGI (U251 CNS) was 6370 nM, the GI50 (EKVX NSCLC) was 1980 nM and the TGI (EKVX NSCLC) was greater than 50000 nM. For the same molecule, the GI50 (SW-620 colon) was 226 nM, the TGI (SW-620 colon) was greater than 50000 nM and the GI50 (UACC-62 melanoma) was 170 nM. For the same molecule, the TGI (UACC-62 melanoma) was greater than 50000 nM, the GI50 (SR leukemia) was 114 nM and the TGI (SR leukemia) was greater than 50000 nM. The GI50 (SF-268 CNS) was 854 nM, the TGI (SF-268 CNS) was greater than 50000 nM and the GI50 (A549 NSCLC) was 409 nM. It also gave a TGI (A549 NSCLC) greater than 50000 nM, a GI50 (MDA-MB-435) of 94 nM and a TGI (MDA-MB-435) of 237 nM. It also gave a GI50 (SK-OV-3 ovarian) of 273 nM, a TGI (SK-OV-3 ovarian) greater than 50000 nM and a GI50 (M14 melanoma) of 193 nM. It also gave a TGI (M14 melanoma) greater than 50000 nM, a GI50 (HL-60(TB) leukemia) of 134 nM and a TGI (HL-60(TB) leukemia) of 3480 nM. The GI50 (SK-MEL-28 melanoma) was 1740 nM, the TGI (SK-MEL-28 melanoma) was greater than 50000 nM and the GI50 (RPMI-8226 leukemia) was 329 nM. The TGI (RPMI-8226 leukemia) was greater than 50000 nM, the GI50 (OVCAR-8 ovarian) was 355 nM and the TGI (OVCAR-8 ovarian) was 2600 nM. It also gave a GI50 (786-0 renal) of 291 nM, a TGI (786-0 renal) greater than 18100 nM and a GI50 (A498 renal) of 140 nM. It also gave a TGI (A498 renal) of 831 nM, a GI50 (HOP-92 NSCLC) of 260 nM and a TGI (HOP-92 NSCLC) greater than 30300 nM. For the same molecule, the GI50 (HCT-116 colon) was 241 nM, the TGI (HCT-116 colon) was greater than 50000 nM and the GI50 (SF-539 CNS) was 178 nM. The TGI (SF-539 CNS) was 1280 nM, the GI50 (NCI/ADR-RES ovarian) was 186 nM and the TGI (NCI/ADR-RES ovarian) was greater than 50000 nM. For the same molecule, the GI50 (SN12C renal) was 282 nM, the TGI (SN12C renal) was greater than 50000 nM and the GI50 (UO-31 renal) was 289 nM. It also gave a TGI (UO-31 renal) greater than 50000 nM, a GI50 (MCF7 breast) of 167 nM and a TGI (MCF7 breast) greater than 50000 nM. The GI50 (PC-3 prostate) was 225 nM, the TGI (PC-3 prostate) was greater than 50000 nM and the GI50 (UACC-257 melanoma) was 19600 nM. It also gave a TGI (UACC-257 melanoma) greater than 50000 nM, a GI50 (KM12 colon) of 241 nM and a TGI (KM12 colon) greater than 50000 nM. It also gave a GI50 (ACHN renal) of 303 nM, a TGI (ACHN renal) greater than 50000 nM and a GI50 (LOX IMVI melanoma) of 474 nM. It also gave a TGI (LOX IMVI melanoma) of 1770 nM, a GI50 (COLO 205 colon) of 260 nM and a TGI (COLO 205 colon) of 1960 nM. It also gave a TGI (OVCAR-4 ovarian) greater than 50000 nM, a GI50 (SNB-19 CNS) of 251 nM and a TGI (SNB-19 CNS) greater than 50000 nM. For the same molecule, the GI50 (CAKI-1 renal) was 291 nM, the TGI (CAKI-1 renal) was greater than 50000 nM and the GI50 (HS 578T breast) was 219 nM. For the same molecule, the TGI (HS 578T breast) was greater than 44100 nM, the GI50 (SF-295 CNS) was 160 nM and the TGI (SF-295 CNS) was 1150 nM. The GI50 (TK-10 renal) was 3720 nM, the TGI (TK-10 renal) was greater than 50000 nM and the GI50 (T-47D breast) was 271 nM. The TGI (T-47D breast) was greater than 50000 nM, the GI50 (OVCAR-5 ovarian) was 659 nM and the TGI (OVCAR-5 ovarian) was greater than 50000 nM. The GI50 (MDA-MB-231 breast) was 438 nM, the TGI (MDA-MB-231 breast) was greater than 37000 nM and the GI50 (SK-MEL-2 melanoma) was 496 nM. It also gave a TGI (SK-MEL-2 melanoma) greater than 10500 nM, a GI50 (NCI-H23 lung) of 614 nM and a TGI (NCI-H23 lung) greater than 50000 nM. It also gave a GI50 (K-562 leukemia) of 152 nM, a TGI (K-562 leukemia) greater than 50000 nM and a GI50 (MALME-3M melanoma) of 291 nM. For the same molecule, the TGI (MALME-3M melanoma) was greater than 50000 nM, the GI50 (HT29 colon) was 177 nM and the TGI (HT29 colon) was 739 nM. The GI50 (SNB-75 CNS) was 123 nM, the TGI (SNB-75 CNS) was 398 nM and the GI50 (NCI-H522 lung) was 146 nM. The TGI (NCI-H522 lung) was 740 nM, the GI50 (SK-MEL-5 melanoma) was 206 nM and the TGI (SK-MEL-5 melanoma) was 2110 nM. The GI50 (IGROV1 ovarian) was 292 nM, the TGI (IGROV1 ovarian) was greater than 50000 nM and the GI50 (NCI-H226 lung) was 390 nM. The TGI (NCI-H226 lung) was greater than 50000 nM, the GI50 (NCI-H460 lung) was 206 nM and the TGI (NCI-H460 lung) was greater than 50000 nM. It also gave a GI50 (HCC-2998 colon) of 836 nM, a TGI (HCC-2998 colon) greater than 13400 nM and a GI50 (DU-145 prostate) of 451 nM. For the same molecule, the TGI (DU-145 prostate) was greater than 50000 nM, the GI50 (RXF 393 renal) was 128 nM and the TGI (RXF 393 renal) was 440 nM. For the same molecule, the GI50 (MOLT-4 leukemia) was 213 nM, the TGI (MOLT-4 leukemia) was greater than 50000 nM and the GI50 (HOP-62 NSCLC) was 319 nM. It also gave a TGI (HOP-62 NSCLC) greater than 50000 nM, a GI50 (BT-549 breast) of 208 nM and a TGI (BT-549 breast) of 31400 nM. It also gave a GI50 (CCRF-CEM leukemia) of 197 nM and a TGI (CCRF-CEM leukemia) greater than 50000 nM.
